The record followed here is PubChem BioAssay AID602298 (The Scripps Research Institute Molecular Screening Center, 2012).

The source made the active and inactive calls. How the calls were made is not given here.

This assay has as its target Melanocortin receptor 4 (Homo sapiens) (UniProt P32245). As to the kind of experiment: PubChem AID 602298. The following applies: MC4R stable cells, MTII-stimulated cAMP, TR-FRET.

Sequence of Melanocortin receptor 4 (Homo sapiens) (P32245 whole entry, looked up): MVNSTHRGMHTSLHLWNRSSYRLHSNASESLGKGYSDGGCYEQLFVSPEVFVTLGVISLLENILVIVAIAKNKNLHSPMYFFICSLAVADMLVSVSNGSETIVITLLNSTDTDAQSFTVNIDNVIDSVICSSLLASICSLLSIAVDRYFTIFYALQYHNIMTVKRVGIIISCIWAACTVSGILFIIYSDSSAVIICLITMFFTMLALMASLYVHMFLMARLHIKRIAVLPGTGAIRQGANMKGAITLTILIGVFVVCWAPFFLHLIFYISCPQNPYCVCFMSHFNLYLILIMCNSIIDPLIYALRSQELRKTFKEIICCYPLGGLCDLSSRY

Take `CCOP(=O)(CCP(=O)(OCC)OCC)OCC.C[CH2][Sn]([Cl])([Cl])[CH2]C`: the IC50 entry is “inactive”.
